In US20190010461A1, “HUMAN PLURIPOTENT STEM CELL-BASED SCREENING FOR SMOOTH MUSCLE CELL DIFFERENTIATION AND DISEASE” (Wisconsin Alumni Research Foundation, priority 2017, published 2019):
Structures can show the parent of a compound that is named as a salt.

Legend:
[1] = tested on: MYH11 promoter-driven luciferase activity; test: High-throughput screening, MYH11-Nluc-2A-Tom reporter human ES cell line, luciferase assay; format: cell-based; conditions: small molecules added day 4-14; selected when normalized reads > average+3×STDEV
Method: FIGS. 1A-1C depict a schematic of high-throughput screening. […] The cells were passaged at day 4 and seeded on the 96-well plate for screening (2×10^6 cells/plate). After the reporter cell line was differentiated into mesoderm, small molecules were added to the cells from day 4 to day 14. FIG. 1B depicts the results of the screening in two batches. The luciferase assay results of individual small molecules were normalized to the average reads of all samples for each batch. The small molecules were selected for further analysis when the normalized reads were greater than “average+3×STDEV”. FIG. 1C depicts optimizing the concentration of the selected small molecules.
The cells were treated with 50 ng/ml FGF2 and 20 ng/ml BMP4 for another two days. The cells were passaged at day 4 and seeded on the 96-well plate for screening (2×10^6 cells/plate). The compounds were added from day 4-14. The Luciferase substrate (1000× dilution) (Nano-Glo Luciferase Assay system, Promega) was added to the medium for 15 min and luminescence was measured. An increase in luminescence indicates increased MYH11 expression, which is an indicator of the contractile smooth muscle cell phenotype. The Thomson custom stem cell Modulator 1, GSK-kinase inhibitor library, SellekChem Kinase inhibitor library, Analyticon NATx library, Prestwick Chemical Library, GlaxoSmithKline Protein Kinase Inhibitors, and part of Enamine Representative Diversity library were used for screening.
High-throughput screening directs contractile smooth muscle cell differentiation—The construction of the MYH11-NLuc-tdTomato human ES cell reporter line generated by CRISPR/Cas9 technology is described in FIGS. 6A-6H. The reporter cell line was differentiated into mesoderm in E8BAC medium (Zhang et al., 2017) for two days and treated with FGF2 and BMP4 to further mature mesoderm for another two days. The cells were then passaged into a 96-well plate and exposed to small molecules for 10 days using a customized robotic workstation (FIG. 1A). The workstation was designed through collaboration with TECAN, which enables us to perform the automatic high-throughput screening at specific time point and in long-term. The medium were changed every other day and the small molecules were added during the feeding. […] We then validated these hits and optimized their concentration.

[2] = tested on: Human pluripotent stem cell cells (H1); test: Mesoderm differentiation of H1 cells in E8BAC medium; format: cell-based; conditions: CHIR99021 increased to 3 μM (from 1 μM)
Method: The cells reached 80-90% confluency two days later. At the day of the differentiation, ES cells were dissociated by […] (Invitrogen) for 3-5 min at 37 ° C. The cells were plated on a […]-coated plate at 1:4 ratios (1×10^5 cells/cm2). […] An increased CHIR99021 concentration of 3 μM decreased cell proliferation at 36 hours but increased MYH11 expression. At 36 hours, the cells were passaged and seeded on a new […]-coated plate (1.6×10^4 cells/cm2). The low cell density is critical for the differentiation. […] […] (E6 medium+5 μM RESV) medium supplemented with RepSox (25 μM), was then used to further mature SMCs from day 12 to 24. Cells were split (1×10^5 cells/cm2) at day 16 and further differentiated until day 24. The cells can be cryopreserved at day 16 or day 24. […] From day 0-4: medium was changed every day. From day 2-24: medium was changed every other day. For day 1 and day 8-24, 1.5×volumes of medium, compared to the normal volume used in the well, were used.

MYH11-Tom+ cells = test: Flow cytometric analysis of MYH11-Tom+ cells in SMC differentiation; format: cell-based, human; conditions: with RepSox 25 μM; DAPT 20 μM, DBZ 10 μM, RO04929097 10 μM; day 10-16
Method: Data are represented as mean±standard deviation (SD). […] Scale bar=1 mm. […] Scale bar=50 μm. […] Data are represented as mean±SD. Student's t-test, *: P<0.05, n=3.
FIGS. 7A-7G show the target of RepSox. […] Cells were treated with RepSox (25 μM) or SiRNA. […] Cells were treated with RepSox (25 μM) or SiRNA. […] During the smooth muscle cells differentiation, cells were treated with or without RepSox from day 10-11. […] During the smooth muscle cells differentiation, cells were treated with RepSox for 1 or 20 hours at day 12. […] Cells were treated with RepSox and non-targeting control (NT)/SiRNA at day 10. The RNA was isolated at day 14.
Optimized smooth muscle cell differentiation—Human pluripotent stem cell cells (H1) were cultured in E8 medium on a […]™-coated plate. To achieve the best differentiation results, ES cells were split using EDTA at 1:4 ratios two days before the differentiation. The cells reached 80-90% confluency two days later. At the day of the differentiation, ES cells were dissociated by ACCUTASE™ (Invitrogen) for 3-5 min at 37 ° C. The cells were plated on a […]™-coated plate at 1:4 ratios (1×10^5 cells/cm2). […] An increased CHIR99021 concentration of 3 μM decreased cell proliferation at 36 hours but increased MYH11 expression. At 36 hours, the cells were passaged and seeded on a new […]™-coated plate (1.6×10^4 cells/cm2). The low cell density is critical for the differentiation. A cell density of 1.0-4.0×10^4 cells/cm2 for different cell lines can be tested, such that 100% cell confluence will be achieved at day 6, which gives rise to the best differentiation efficiency. The cells were treated with E6T medium (E8 medium minus FGF2 but still containing 1.7 ng/ml TGF-β1) for 18 hours to induce the transient and medium level expression of MEOX1. E5F medium (E8 medium minus insulin and TGF-β1, but still containing 100 ng/ml FGF2) was used to suppress MEOX1 expression for another 5 days (days 3-8). Next, the cells were treated with E6FVR medium (E6 medium with 100 ng/ml FGF2, 50 ng/ml VEGFA, and 5 μM RESV, a NOTCH agonist) to induce SMC progenitors from day 8-12. E6R (E6 medium+5 μM RESV) medium supplemented with RepSox (25 μM), was then used to further mature SMCs from day 12 to 24. Cells were split (1×10^5 cells/cm2) at day 16 and further differentiated until day 24. The cells can be cryopreserved at day 16 or day 24. For P-SMCs, T-SMCs, and PT-SMCs, RepSox was replaced by PDGF-BB (10 ng/ml), TGF-β1 (1.7 ng/ml), or combination of PDGF-BB and TGF-β1, respectively, from day 12 to 24. From day 0-4: medium was changed every day. From day 2-24: medium was changed every other day. For day 1 and day 8-24, 1.5×volumes of medium, compared to the normal volume used in the well, were used. […]

intimal hyperplasia = conditions: DeRose 1999; Gulkarov 2009; Sawada 2000; cited from earlier work
endothelium repair = conditions: Prasad 2005; Zheng 2014; cited from earlier work

Row | Compound | promotes MYH11+ SMC differentiation (increased MYH11 promoter-driven luciferase activity) [1] | also measured
1 | CC#CCn1c(N2CCC[C@@H](N)C2)nc2c1c(=O)n(Cc1nc(C)c3ccccc3n1)c(=O)n2C [BI-1356] | promotes MYH11^+ SMC differentiation | 
2 | Cc1c[nH]c(-c2cnc(NCCNc3ccc(C#N)cn3)nc2-c2ccc(Cl)cc2Cl)n1 [CHIR99021] |  | MYH11 expression [2]: increased; cell proliferation at 36 hours [2]: decreased
3 | C[C@H](NC(=O)Cc1cc(F)cc(F)c1)C(=O)N[C@H](C(=O)OC(C)(C)C)c1ccccc1 [DAPT] |  | effect on RepSox improvement of MYH11-Tom+ cell differentiation (MYH11-Tom+ cells): abolished
4 | C[C@H](NC(=O)Cc1cc(F)cc(F)c1)C(=O)N[C@@H]1C(=O)N(C)c2ccccc2-c2ccccc21 [DBZ] |  | effect on RepSox improvement of MYH11-Tom+ cell differentiation (MYH11-Tom+ cells): abolished
5 | CNC(=O)c1cc(Oc2ccc(NC(=O)Nc3cc(C(C)(C)C)nn3-c3ccc4ncccc4c3)c(F)c2)ccn1 [DCC-2036, DCC-2036 (Rebastinib)] | promotes MYH11^+ SMC differentiation | 
6 | CN(C)C(=O)OC1CNC(C#Cc2cc3ncnc(Nc4ccc(OCc5cccc(F)c5)c(Cl)c4)c3s2)C1 (stereo not shown) [GSK182497A] | promotes MYH11^+ SMC differentiation | 
7 | COc1cc2ncnc(Nc3ccc4c(cnn4Cc4ccccc4)c3)c2cc1OC [GSK282449A] | promotes MYH11^+ SMC differentiation | 
8 | COC(=O)Nc1nc2ccc(Sc3ccc(NC(=O)Nc4cc(C(F)(F)F)ccc4F)cc3)cc2[nH]1 [GSK607049C] | promotes MYH11^+ SMC differentiation | 
9 | NC(=O)c1sc(-n2cnc3ccccc32)cc1OCc1ccccc1Br [GSK1023156A] | promotes MYH11^+ SMC differentiation | 
10 | O=C(Nc1ccc(OC(F)(F)F)cc1)c1sccc1NCc1ccnc2ccccc12 [OSI-930] | promotes MYH11^+ SMC differentiation | 
11 | CC(C)(C(=O)NCC(F)(F)C(F)(F)F)C(=O)N[C@@H]1C(=O)Nc2ccccc2-c2ccccc21 [R04929097] |  | effect on RepSox improvement of MYH11-Tom+ cell differentiation (MYH11-Tom+ cells): abolished
12 | O=C(O)C(Cc1c[nH]c2ccccc12)N1C(=O)c2ccccc2C1=O (stereo not shown) [RG108] | promotes MYH11^+ SMC differentiation | 
13 | CCO.N#CC(=C(/N)Sc1ccccc1N)/C(C#N)=C(\N)Sc1ccccc1N [UO126, U0126-EtOH] | promotes MYH11^+ SMC differentiation | inhibition of intimal hyperplasia in previous studies (intimal hyperplasia): inhibit intimal hyperplasia
14 | C[C@@H](N)[C@H]1CC[C@H](C(=O)Nc2ccncc2)CC1 [Y27632] | promotes MYH11^+ SMC differentiation | inhibition of intimal hyperplasia in previous studies (intimal hyperplasia): inhibit intimal hyperplasia
15 | CC(C(=O)O)c1ccc(-c2ccccc2)c(F)c1 (stereo not shown) [flurbiprofen, Flurbiprofen] | promotes MYH11^+ SMC differentiation | 
16 | NS(=O)(=O)c1cc2c(cc1C(F)(F)F)NCNS2(=O)=O [hydroflumethiazide, Hydroflumethiazide] | promotes MYH11^+ SMC differentiation | 
17 | Cc1ccc(NC(=O)c2ccc(CN3CCN(C)CC3)cc2)cc1Nc1nccc(-c2cccnc2)n1 [imatinib, Imatinib Mesylate] | promotes MYH11^+ SMC differentiation | 
18 | CO[C@H]1C[C@@H]2CC[C@@H](C)[C@@](O)(O2)C(=O)C(=O)N2CCCC[C@H]2C(=O)O[C@H]([C@H](C)C[C@@H]2CC[C@@H](O)[C@H](OC)C2)CC(=O)[C@H](C)/C=C(\C)[C@@H](O)[C@@H](OC)C(=O)[C@H](C)C[C@H](C)/C=C/C=C/C=C/1C [rapamycin] |  | effect on endothelium repair (endothelium repair): suppressed
19 | CC1=C(/C=C/C(C)=C/C=C/C(C)=C/C(=O)O)C(C)(C)CCC1 [retinoic acid, All-Trans Retinoic Acid] | promotes MYH11^+ SMC differentiation | inhibition of intimal hyperplasia in previous studies (intimal hyperplasia): inhibit intimal hyperplasia
20 | N[C@@H](CC(=O)N1CCn2c(nnc2C(F)(F)F)C1)Cc1cc(F)c(F)cc1F [sitagliptin, Sitagliptin] | promotes MYH11^+ SMC differentiation | 
21 | CNC(=O)c1cc(Oc2ccc(NC(=O)Nc3ccc(Cl)c(C(F)(F)F)c3)cc2)ccn1 [sorafenib, Sorafenib (Nexavar)] | promotes MYH11^+ SMC differentiation | 
22 | CC(=O)[N-]S(=O)(=O)c1ccc(N)cc1.O.[Na+] [sulfacetamide sodic hydrate, Sulfacetamide sodic hydrate] | promotes MYH11^+ SMC differentiation | 
23 | Nc1ccc(S(=O)(=O)Nc2ccnn2-c2ccccc2)cc1 [sulfaphenazole, Sulfaphenazole] | promotes MYH11^+ SMC differentiation | 
24 | N[C@@H]1C[C@H]1c1ccccc1 [tranylcypromine hydrochloride, Tranylcypromine hydrochloride] | promotes MYH11^+ SMC differentiation | 
